Source: patent US5690904A, “Diagnostic radiopharmaceutical compounds (That)” (priority 1995, dated 1997)

What was measured:
[1] = technetium complex, monkey; cited from earlier work
[2] = technetium complex; cited from earlier work
[3] = Electrophoresis of 99mTc complexes (charge); format: physicochemical; settings: 0.1M NaH2PO4, pH 6.8, 200 volts, 30 min
Source text: After labelling, and if required, the resultant ^99m Tc chelate complexes can be purified by passing through a C-18 Sep Pak column.

[4] = Biodistribution of 99mTc labelled complexes in rats (Tc brain bioassay, Example 64, Table I); format: in vivo, Female Sprague-Dawley rats; settings: rat, i.v. tail vein
Procedure: Distribution of the ^99m Tc labelled compounds was evaluated in rats. Female Sprague-Dawley rats weighing 140 to 220 g (average 170 g) were anaesthetised with sodium pentobarbital and were injected in a tail vein with 0.05 to 10mCi of the ^99m Tc labelled complex in a volume of 0.2 to 0.5 ml. At least two rats were injected for each time point.
The animals were sacrificed at 5 and 30 minutes post injection and selected organs were removed; the tails were discarded to avoid interference from the injection site. The radioactivity in each organ was measured at a standard geometry with a […] sodium iodide scintillation counter adjusted for the 140 KeV emission of ^99m Tc. The organs were also weighed to one hundredth of a gram and the activity was calculated as a percent of administered dose per gram. The important determinations are the amount of activity in the brain and the brain:blood ratio.

Compound: CCOC(=O)[C@H](CS)NCCN[C@@H](CS)C(=O)OCC [ECD]
- brain retention [1]: retention
- brain uptake [1]: good

Compound: CC(C)(S)CNCCNCC(C)(C)S [BAT]
- brain uptake / crossing of blood-brain barrier [2]: can cross the blood-brain barrier (BBB)
- retention of brain activity [2]: fails to show retention

Compound: CC(C)(S)CNCc1ccccc1NCC(C)(C)S [U-BAT]
- brain uptake / crossing of blood-brain barrier [2]: exhibit brain uptake
- retention of brain activity [2]: no retention

Compound: C=CC[SH]1C(C)(C)C(=O)[N]2CC[N]3c4ccccc4[S][Tc]231=[O] (stereo not drawn) [Example T721, ^99m Tc complex of N[2-(((-methyl-2-allylthio)propionyl)amino)ethyl]-2-aminothiopenol]
- Electrophoresis (charge) [3]: neutral
- Brain % dose ([4]; 5 min post injection): 1.82 % dose
- Heart % dose ([4]; 5 min post injection): 0.75 % dose
- Brain:blood ([4]; 5 min post injection, 5 min): 1.23
- Heart:blood ([4]; 5 min post injection, 5 min): 1.16
- Brain % dose ([4]; 30 min post injection): 0.30 % dose
- Heart % dose ([4]; 30 min post injection): 0.36 % dose
- Brain:blood ([4]; 30 min post injection, 30 min): 0.21
- Heart:blood ([4]; 30 min post injection, 30 min): 0.49
